Patent US20170044597A1, “ASSAY METHOD AND KIT FOR NUCLEIC ACID BINDING PROTEIN” (Hiroshima University, priority 2008, published 2017)

Key:
SP1/oligonucleotide = test: Negative control of the screening system: strand exchange of a nucleic acid set that does not bind to NF-κB (Example 5); details: 0 to 5 nmol aurothioglucose, duplexes 05C/08 and 06B/07 as negative control, same reaction (FIG. 9)
Excerpt: A synthetic oligonucleotide SP1-08 and a synthetic oligonucleotide SP1-05-5C3 labeled at the 5′ terminus with Cy3, or a synthetic oligonucleotide SP1-07 and a synthetic oligonucleotide SP1-06-3B1 labeled at the 3′ terminus with BHQ1 were mixed to prepare duplexes 05C/08 and 06B/07 having a single-stranded terminus under the same conditions as in Example 1. The duplexes 05C/08 and 06B/07 have an SP1 binding sequence.
(§1) To a mixed solution of 31F/42 and 05C/08 (50 fmol each), 0 to 5 nmol of aurothioglucose and 0.5 pmol of recombinant human NFκB p50 (Promega Corp.) were added, and further a mixed solution of 32D/41 and 06B/07 (200 fmol each) was added. The resulting solution was mixed and reacted at 25° C. for 30 minutes. […] The fluorescence values of fluorescein and Cy3 were measured using a fluorescence plate reader Ultra (Tecan Group Ltd.). The fluorescein was excited at 485 nm, and its fluorescence was measured at 535 nm. The Cy3 was excited at 535 nm and its fluorescence was measured at 595 nm.

[1] = target: T1, recombinant human NFκB p50 (Homo sapiens, UniProt P19838); test: Detection of NF-κB (p50) inhibitory effect of aurothioglucose (Example 5); assay type: binding; details: 0 to 5 nmol aurothioglucose, 0.5 pmol NFκB p50, duplexes 31F/42 and 32D/41, 25° C. 30 minutes, relative to absence of aurothioglucose (FIG. 9)
T1 construct: recombinant human NFκB p50 (Promega Corp.); purchased Promega Corp
T1 sequence (P19838 1-433 limits assumed): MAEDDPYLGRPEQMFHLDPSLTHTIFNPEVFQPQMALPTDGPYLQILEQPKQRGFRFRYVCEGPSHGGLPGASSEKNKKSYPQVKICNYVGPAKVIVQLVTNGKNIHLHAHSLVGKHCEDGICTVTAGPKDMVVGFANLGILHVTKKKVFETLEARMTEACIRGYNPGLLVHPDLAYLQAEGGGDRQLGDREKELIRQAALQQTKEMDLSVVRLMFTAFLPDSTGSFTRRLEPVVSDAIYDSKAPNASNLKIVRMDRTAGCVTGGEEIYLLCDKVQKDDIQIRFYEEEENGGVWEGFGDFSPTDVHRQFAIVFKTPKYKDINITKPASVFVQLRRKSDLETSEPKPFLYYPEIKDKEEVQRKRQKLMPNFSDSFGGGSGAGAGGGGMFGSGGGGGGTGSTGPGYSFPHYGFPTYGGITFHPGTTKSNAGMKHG
Excerpt: A synthetic oligonucleotide NFkB-42 and a synthetic oligonucleotide NFkB-31-5F labeled at the 5′ terminus with fluorescein, or a synthetic oligonucleotide NFkB-41 and a synthetic oligonucleotide NFkB-32-3D labeled at the 3′ terminus with DABCYL were mixed to prepare duplexes 31F/42 and 32D/41 having a single-stranded terminus under the same conditions as in Example 1. The duplexes 31F/42 and 32D/41 have an NF-κB binding sequence.
as §1

NF-κB = details: Yang et al. FEBS letters 1995, 361, 89-96; cited from earlier work
recombinant human SP1 = target: T2, recombinant human SP1 (Homo sapiens, UniProt P08047); test: Effect of mismatch introduction on suppression of strand exchange, SP1 (Example 4-1); assay type: binding; details: 40 fmol SP05C/08B, 2.5 pmol SP1, 80 fmol of the added duplex or single strand, 25° C. 120 minutes (FIG. 7)
T2 construct: purchased Promega Corp
T2 sequence (P08047 whole entry): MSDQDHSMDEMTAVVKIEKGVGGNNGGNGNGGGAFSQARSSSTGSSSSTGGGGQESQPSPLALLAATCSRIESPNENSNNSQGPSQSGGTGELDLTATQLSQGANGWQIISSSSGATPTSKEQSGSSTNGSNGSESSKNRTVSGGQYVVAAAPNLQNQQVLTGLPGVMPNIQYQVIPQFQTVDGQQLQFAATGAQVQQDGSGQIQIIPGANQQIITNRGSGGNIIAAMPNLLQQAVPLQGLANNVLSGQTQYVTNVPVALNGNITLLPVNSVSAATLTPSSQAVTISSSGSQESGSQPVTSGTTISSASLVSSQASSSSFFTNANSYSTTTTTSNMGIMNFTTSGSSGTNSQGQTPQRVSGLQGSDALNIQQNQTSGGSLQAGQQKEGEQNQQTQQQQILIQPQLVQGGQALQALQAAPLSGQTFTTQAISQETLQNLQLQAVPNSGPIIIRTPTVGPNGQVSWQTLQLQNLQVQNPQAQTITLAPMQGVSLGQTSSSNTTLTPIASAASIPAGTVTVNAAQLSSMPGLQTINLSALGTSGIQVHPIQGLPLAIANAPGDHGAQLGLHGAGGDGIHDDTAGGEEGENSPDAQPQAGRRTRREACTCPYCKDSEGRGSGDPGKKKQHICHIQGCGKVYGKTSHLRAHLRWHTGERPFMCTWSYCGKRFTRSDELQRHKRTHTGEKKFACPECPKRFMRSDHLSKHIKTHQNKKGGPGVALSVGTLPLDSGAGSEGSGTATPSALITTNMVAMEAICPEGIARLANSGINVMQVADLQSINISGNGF
Excerpt: A synthetic oligonucleotide SP1-05-5C3 labeled at the 5′ terminus with Cy3 and a synthetic oligonucleotide SP1-08-3B1 labeled at the 3′ terminus with BHQ1 were mixed to prepare a duplex SP05C/08B having a single-stranded terminus under the same conditions as in Example 1. Moreover, synthetic oligonucleotides SP1-06 and SP1-07, synthetic oligonucleotides SP1-21 and SP1-22, or synthetic oligonucleotides SP1-23 and SP1-24 were mixed to prepare duplexes SP06/07, SP22/21, and SP24/23 having a single-stranded terminus under the same conditions as in Example 1. These duplexes have an SP1 binding sequence.
40 fmol of SP05C/08B and 2.5 pmol of recombinant human SP1 (Promega Corp.) were mixed into a reaction solution (10 mM HEPES-NaOH pH 7.9, 50 mM KCl, 0.1 mM EDTA, 5 mM DTT, 10% glycerol, 0.05% IGEPAL CA-630, 15 μL) and reacted at 25° C. for 30 minutes. 80 fmol of SP06/07, SP22/21, SP24/23, SP1-07, SP1-21, or SP1-23 was added thereto, and […] of the resulting mixture was then reacted at 25° C. for 120 minutes. The fluorescence value of Cy3 was measured using a fluorescence plate reader Ultra (Tecan Group Ltd.).

| Molecule | relative fluorescence value of the SP1/oligonucleotide (SP1/oligonucleotide) | relative fluorescence value of the NF-κB/oligonucleotide complex [1] | inhibition of NF-κB (NF-κB) | effect of addition of SP1 on increase in fluorescence value (Cy3) caused by strand exchange (recombinant human SP1) |
| --- | --- | --- | --- | --- |
| OC[C@H]1O[C@H]([S-])[C@H](O)[C@@H](O)[C@@H]1O.[Au+] [aurothioglucose, Aurothioglucose] | hardly influenced | decreased depending on the concentration of aurothioglucose | known to inhibit NF-κB | – |
| SP1-07: synthetic oligonucleotide 5′ ATTCGATCGGGGCGGGGCGACGAGC AGGCTACTCTCTGACCG 3′ (SEQ ID NO: 31) (DNA ATTCGATCGGGGCGGGGCGACGAGCAGGCTACTCTCTGACCG; DNA, backbone and methylation of C not given here) | – | – | – | suppressed increase in fluorescence value |
